≈ marks a conversion by molar mass, not a printed value.
Columns and labels:
Staphylococcus aureus [1] = assay: In vitro antibacterial activity against staphylococcus aureus 209P NIHJ JC1 organism; format: functional
Escherichia coli = assay: In vitro antibacterial activity against Escherichia coli NIHJ JC2 organism; format: functional
Staphylococcus aureus [2] = assay: In vitro antibacterial activity against staphylococcus aureus BB6294 organism (Methicillin-resistant strain); format: functional
Pseudomonas aeruginosa = assay: In vitro antibacterial activity against Pseudomonas aeruginosa MB5002 organism; format: functional
Staphylococcus aureus [3] = assay: In vitro antibacterial activity against staphylococcus aureus CSa1009 (Methicillin-resistant strain and b beta-Lactamase producing strain); format: functional
[4] = test system: Staphylococcus epidermidis; assay: In vitro antibacterial activity against Staphylococcus epidermidis MB5181a organism; format: functional; settings: Staphylococcus epidermidis; read-out: MIC
[5] = biological target: T1, Dipeptidase 1 (Sus scrofa) (UniProt P22412); assay: Relative rate of hydrolysis of porcine renal dehydropeptidase-I (DHP-I) to imipenem; format: functional
T1 sequence (whole entry): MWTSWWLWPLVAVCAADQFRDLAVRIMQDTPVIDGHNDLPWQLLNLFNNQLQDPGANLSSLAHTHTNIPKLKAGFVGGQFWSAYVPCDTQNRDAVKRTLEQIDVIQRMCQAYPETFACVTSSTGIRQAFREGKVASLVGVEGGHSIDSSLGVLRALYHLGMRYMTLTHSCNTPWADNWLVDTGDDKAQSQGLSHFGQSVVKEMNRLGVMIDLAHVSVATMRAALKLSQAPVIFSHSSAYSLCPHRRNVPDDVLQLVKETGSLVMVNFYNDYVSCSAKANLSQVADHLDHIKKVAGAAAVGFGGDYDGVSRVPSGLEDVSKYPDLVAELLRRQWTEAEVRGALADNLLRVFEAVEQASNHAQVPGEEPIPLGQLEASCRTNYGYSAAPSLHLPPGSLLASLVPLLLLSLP

Enterococcus faecalis = assay: In vitro antibacterial activity against Enterococcus faecalis MB4996 organism; format: functional
[6] = biological target: T1, Dipeptidase 1 (Sus scrofa); assay: Compound was measured for DHP-I susceptibility; format: functional
[7] = PBP-2'' affinity was determined by the competition assay with [14C]benzylpenicillin using membrane isolated from MRSA BB6294 strain; format: functional, Staphylococcus aureus
Staphylococcus aureus [8] = assay: Compound was tested in vitro for its anti-methicillin-resistant staphylococcus aureus(MRSA); 3.13-6.25; format: functional
[9] = Compound was measured for binding rate for human serum at a carbapenem concentration of 10 ug/mL; format: ADME; settings: read-out: Protein binding (converted)
Staphylococcus aureus [10] = assay: Compound was tested in vivo for its anti-methicillin-resistant staphylococcus aureus(MRSA); format: functional
Rattus norvegicus = assay: Epileptogenicity of compound was measured at 100 ug/rat head by the rat intraventricular assay; 0/5; format: functional, Cerebral ventricle
Mus musculus = species: Mus musculus; assay: Compound was measured for binding rate for mouse serum at a carbapenem concentration of 10 ug/mL; format: functional

Row | Compound | MIC (Staphylococcus aureus [1]) | MIC (Escherichia coli) | MIC (Staphylococcus aureus [2]) | MIC (Pseudomonas aeruginosa) | MIC (Staphylococcus aureus [3]) | MIC [4] | DHP-I susceptibility [5] | MIC (Enterococcus faecalis) | DHP-I susceptibility [6] | IC50 [7] | MIC (Staphylococcus aureus [8]) | fraction unbound at 10 ug/mL [9] | ED50 (Staphylococcus aureus [10]) | Epileptogenicity (Rattus norvegicus) | PPB (Mus musculus) | ED50 (Staphylococcus aureus [10]; Staphylococcus aureus)
1 | C[C@@H](O)[C@H]1C(=O)N2C(C(=O)O)=C(SC(=S)N(C)c3ccccc3)[C@H](C)[C@H]12 | 0.05 µg/mL (≈ 0.127 µM) | > 25 µg/mL | 1.56 µg/mL (≈ 3.97 µM) | > 25 µg/mL | 3.13 µg/mL (≈ 7.97 µM) | 1.56 µg/mL (≈ 3.97 µM) | 2.29 | 6.25 µg/mL (≈ 15.9 µM) |  |  |  |  |  |  |  | 
2 | CCN(C)C(=S)SC1=C(C(=O)O)N2C(=O)[C@H]([C@@H](C)O)[C@H]2[C@H]1C | 0.025 µg/mL (≈ 0.0726 µM) | 6.25 µg/mL (≈ 18.1 µM) | 3.13 µg/mL (≈ 9.09 µM) | > 25 µg/mL | 3.13 µg/mL (≈ 9.09 µM) | 3.13 µg/mL (≈ 9.09 µM) | 2.26 | 6.25 µg/mL (≈ 18.1 µM) |  |  |  |  |  |  |  | 
3 | C[C@@H](O)[C@H]1C(=O)N2C(C(=O)O)=C(SC(=S)N(C)c3cccs3)[C@H](C)[C@H]12 | < 0.006 µg/mL | 12.5 µg/mL (≈ 31.4 µM) | 1.56 µg/mL (≈ 3.91 µM) | > 25 µg/mL | 3.13 µg/mL (≈ 7.85 µM) | 0.78 µg/mL (≈ 1.96 µM) | 2.05 | 3.13 µg/mL (≈ 7.85 µM) |  |  |  |  |  |  |  | 
4 | C[C@@H](O)[C@H]1C(=O)N2C(C(=O)O)=C(SC(=S)N3CCCC3)C[C@H]12 | 0.025 µg/mL (≈ 0.073 µM) |  | 6.25 µg/mL (≈ 18.3 µM) |  | 25 µg/mL (≈ 73 µM) | 12.5 µg/mL (≈ 36.5 µM) | 11.7 |  |  |  |  |  |  |  |  | 
5 | C[C@@H](O)[C@H]1C(=O)N2C(C(=O)O)=C(SC(=S)N(C)C)[C@H](C)[C@H]12 | 0.012 µg/mL (≈ 0.0363 µM) | 6.25 µg/mL (≈ 18.9 µM) | 3.13 µg/mL (≈ 9.47 µM) | 25 µg/mL (≈ 75.7 µM) | 6.25 µg/mL (≈ 18.9 µM) | 6.25 µg/mL (≈ 18.9 µM) | 2.12 | 12.5 µg/mL (≈ 37.8 µM) | 2.12 | 9.6 µg/mL (≈ 29.1 µM) | 4.59 µg/mL (≈ 13.9 µM) | 0.12 | 5.91 mg/kg | 0 | 69% | 
6 | C[C@@H](O)[C@H]1C(=O)N2C(C(=O)O)=C(SC(=S)N3CCCCCC3)[C@H](C)[C@H]12 | 0.012 µg/mL (≈ 0.0312 µM) | > 25 µg/mL | 1.56 µg/mL (≈ 4.06 µM) | > 25 µg/mL | 1.56 µg/mL (≈ 4.06 µM) | 1.56 µg/mL (≈ 4.06 µM) | 3.09 | 6.25 µg/mL (≈ 16.3 µM) |  |  |  |  |  |  |  | 
7 | C[C@@H](O)[C@H]1C(=O)N2C(C(=O)O)=C(SC(=S)N3CCC(O)CC3)[C@H](C)[C@H]12 | 0.025 µg/mL (≈ 0.0647 µM) | 3.13 µg/mL (≈ 8.1 µM) | 6.25 µg/mL (≈ 16.2 µM) | > 25 µg/mL | 6.25 µg/mL (≈ 16.2 µM) | 6.25 µg/mL (≈ 16.2 µM) | 2.23 | 6.25 µg/mL (≈ 16.2 µM) |  |  |  |  |  |  |  | 
8 | C[C@@H](O)[C@H]1C(=O)N2C(C(=O)O)=C(SC(=O)N3CCCC3)[C@H](C)[C@H]12 | 0.05 µg/mL (≈ 0.147 µM) |  | 25 µg/mL (≈ 73.4 µM) |  | 25 µg/mL (≈ 73.4 µM) | 25 µg/mL (≈ 73.4 µM) | 0.65 |  |  |  |  |  |  |  |  | 
9 | C[C@@H](O)[C@H]1C(=O)N2C(C(=O)O)=C(SC(=S)N3CCC3)[C@H](C)[C@H]12 | 0.025 µg/mL (≈ 0.073 µM) | 3.13 µg/mL (≈ 9.14 µM) | 3.13 µg/mL (≈ 9.14 µM) | > 25 µg/mL | 6.25 µg/mL (≈ 18.3 µM) | 6.25 µg/mL (≈ 18.3 µM) | 3.03 | 6.25 µg/mL (≈ 18.3 µM) |  |  |  |  |  |  |  | 
10 | CN[C@H](CC(C)C)C(=O)N[C@H]1C(=O)N[C@@H](CC(N)=O)C(=O)N[C@H]2C(=O)N[C@H]3C(=O)N[C@H](C(=O)N[C@H](C(=O)O)c4cc(O)cc(O)c4-c4cc3ccc4O)[C@H](O)c3ccc(c(Cl)c3)Oc3cc2cc(c3O[C@@H]2O[C@H](CO)[C@@H](O)[C@H](O)[C@H]2O[C@H]2C[C@](C)(N)[C@H](O)[C@H](C)O2)Oc2ccc(cc2Cl)[C@H]1O [VANCOMYCIN] | 0.39 µg/mL (≈ 0.269 µM) | > 25 µg/mL |  | > 25 µg/mL |  |  |  |  |  |  |  |  |  |  |  | 5.56 mg/kg
11 | C[C@@H](O)[C@H]1C(=O)N2C(C(=O)[O-])=C(SC(=S)N3CC[N+](C)(C)CC3)[C@H](C)[C@H]12 | 0.012 µg/mL (≈ 0.03 µM) | 0.1 µg/mL (≈ 0.25 µM) | 3.13 µg/mL (≈ 7.83 µM) | > 25 µg/mL | 12.5 µg/mL (≈ 31.3 µM) | 3.13 µg/mL (≈ 7.83 µM) | 0.11 | 1.56 µg/mL (≈ 3.9 µM) |  |  |  |  |  |  |  | 

From ChEMBL document CHEMBL1149970, “Novel dithiocarbamate carbapenems1 with anti-MRSA activity” (Bioorg Med Chem Lett, 1997)
